Reference: patent publication US20040175401A1, “Enhanced parmacokinetic profile of hydrophobic substances” (priority 2001, published 2004)
Read-outs that look alike come from different tables or passages of the source. Marks after values point to notes of the source that are not given here.

What was measured:
[1] = starred values; log P estimated using SRC program
[2] = n-octanol/water partition coefficient LogPoct calculated from solubility data; conditions: calculated as logPoct = (0.99 - logSw)/1.34
Description: where logSw is the molar solubility and logPoct is the water-oil partition coefficient. Using this equation, values for logPoct can be calculated from solubility data.

[3] = molar aqueous solubility, log value; cited from earlier work

| Compound | LogSw [1] | LogPoct [2] | LogSw [3] [moles/L] |
| --- | --- | --- | --- |
| Cc1onc(-c2ccccc2)c1-c1ccc(S(N)(=O)=O)cc1 [Valdecoxib] | −2.59* moles/L |  |  |
| CCC[C@@]1(CCc2ccccc2)CC(O)=C([C@H](CC)c2cccc(NS(=O)(=O)c3ccc(C(F)(F)F)cn3)c2)C(=O)O1 [N-(3{(1R)-1-[(6R)-4-hydroxy-2-oxo-6-phenethyl-6-propyl-5,6-dihydro-2H-pyran-3-yl]propyl}phenyl)-5-(trifluoromethyl)-2-pyridinesulfonamide] | −8.00* moles/L |  |  |
| S=c1cc(-c2ccccc2)ss1 [5-phenyldithiolethione] |  | 4.95 | −5.64 |
| CC(=O)OCCOCn1cnc2c(=O)[nH]c(N)nc21 [O-acetylacyclovir] |  | 1.38 | −0.86 |
| CC12CCC(C1)C(C)(C)C2O (centres unmarked) [fenchyl_alcohol] |  | 2.43 | −2.27 |
| C=C(C)C1CC=C(C)C(=O)C1 (centres unmarked) [Carvone] |  | 1.99 | −1.67 |
| CCCCCCCC(=O)OCN1C(=O)NC(c2ccccc2)(c2ccccc2)C1=O [3-octanoloxymethyl-5,5-diphenylhydantoin] |  | 5.60 | −6.52 |
| C=C(C)C1CC=C(C)[C@@H](O)C1 (some centres unmarked) [carveol] |  | 2.14 | −1.88 |
| C=CC(C)(O)CCC=C(C)C (centres unmarked) [linalool] |  | 2.23 | −2.00 |
| CCC(=O)NS(=O)(=O)c1ccc(-c2c(-c3ccccc3)noc2C)cc1 [Parecoxib] | −3.16* moles/L |  |  |
